# Article PMC9303812, “Asymmetrically Substituted m‐Terphenyl Phosphates Inhibit the Transcription Factor STAT5a” (Chembiochem, 2021)
# Target: T1, STAT6 (Homo sapiens, UniProt P42226)
# T1 sequence (P42226 1-847): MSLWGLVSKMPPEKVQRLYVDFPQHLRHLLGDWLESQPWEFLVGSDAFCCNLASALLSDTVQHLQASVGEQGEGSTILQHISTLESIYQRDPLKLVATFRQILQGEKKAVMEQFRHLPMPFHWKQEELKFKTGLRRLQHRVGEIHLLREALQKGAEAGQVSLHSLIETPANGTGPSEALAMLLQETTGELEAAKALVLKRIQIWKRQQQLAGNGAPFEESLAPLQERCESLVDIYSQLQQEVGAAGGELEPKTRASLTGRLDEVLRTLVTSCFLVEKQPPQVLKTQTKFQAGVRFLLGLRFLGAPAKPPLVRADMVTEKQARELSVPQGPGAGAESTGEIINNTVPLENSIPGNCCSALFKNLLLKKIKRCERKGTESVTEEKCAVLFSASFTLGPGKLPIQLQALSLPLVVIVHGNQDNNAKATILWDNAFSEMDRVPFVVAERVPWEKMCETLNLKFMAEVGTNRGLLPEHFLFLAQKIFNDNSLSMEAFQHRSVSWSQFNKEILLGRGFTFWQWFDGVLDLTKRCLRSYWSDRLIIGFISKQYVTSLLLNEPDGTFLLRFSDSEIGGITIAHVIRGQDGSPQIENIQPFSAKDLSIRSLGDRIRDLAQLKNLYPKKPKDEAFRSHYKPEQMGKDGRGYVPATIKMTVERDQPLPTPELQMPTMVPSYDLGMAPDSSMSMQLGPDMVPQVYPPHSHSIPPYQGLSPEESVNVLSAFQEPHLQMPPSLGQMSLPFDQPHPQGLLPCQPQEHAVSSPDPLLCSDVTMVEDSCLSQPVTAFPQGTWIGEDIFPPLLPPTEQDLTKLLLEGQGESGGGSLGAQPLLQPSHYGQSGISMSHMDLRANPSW
# Test: Fluorescence polarization (FP) binding assay, STAT6
# Method: Ki values were calculated from IC50 values using the published equation.[2] […]
# Table S2: Activities of 12 against STAT5 proteins in FP assays.
# Fluorescence polarization assays
# Fluorescence polarization assays were essentially carried out as previously described.[1] These assays quantitate to which extent a test compound is able to interfere with binding between a STAT protein and a fluorescein-labeled phosphotyrosine-containing peptide, which is known to bind to the SH2 domain of the respective STAT protein. The following protein […]
# concentrations were used: 100 nM for STAT1, 150 nM for STAT3, 30 nM for STAT4, 180 nM for STAT5a, 90 nM for STAT5b and 105 nM for STAT6. All peptides were used at a concentration of 10 nM. The following peptides were used: 5 -carboxyfluorescein -GpYDKPHVL for STAT1; 5-carboxyfluorescein -GpYLPQTV-NH2 for STAT3; 5-carboxyfluorescein-GpYLPQNID-OH for STAT4; 5-carboxyfluorescein-GpYLVLDKW for STAT5a/b, and 5-carboxyfluorescein-GpYVPWQDLI-OH for STAT6. As a buffer system, 10 mM Tris (pH 8.0), 50 mM NaCl, 1 mM EDTA, 1 mM DTT, 0.1 % Nonidet P-40 substitute, and 2 % DMSO in water was used. All compounds tested were incubated for 1 h with the protein. Subsequently, the fluorescein-labeled peptide was added and the fluorescence polarization was measured with an Infinite F500 plate reader (Tecan) after another hour. IC50 values were converted to Ki-values using the published equation.[2] […]
# 3:2 solution was added . The solution was degassed by applying ultrasonic under vacuum for one minute four times. 14 mg of Pd(PPh3)4 (12 µmol, 5 mol %) were added and the solution was refluxed overnight. After cooling down, the mixture was extracted with ethyl acetate, washed with brine and dried over Na2SO4. The crude product was purified by flash column […]
# Method 2: Synthesis of dibenzylphosphate esters
# The corresponding phenol (1 eq.) was dissolved in 10 ml/mmol MeCN or DMF and CCl4 (5 eq.), DIPEA (2 eq.) and DMAP (0.1 eq.) were added. After cooling down to 0°C, dibenzyl phosphite (1.5 eq.) was added dropwise and stirring was continued at the same temperature. […]
IC50 (FP assay) [µM],"Ki (FP assay, Ki calculated from IC50 (n=3)) [µM]",Compound,inhibition at 200 µM (read-out: STAT6 inhibition at 200 μM) [%]
–,–,COc1cc(-c2cc(OP(=O)(O)O)cc(-c3cc(F)c(F)c(F)c3)c2)cc(OC)c1OC [6 b],39 ± 1
144 ± 2.8,71.5 ± 1.4,COc1cc(-c2cc(-c3cc(F)c(F)c(F)c3)cc(C(F)P(=O)(O)O)c2)cc(OC)c1OC (stereo not drawn) [compound 12],–
